Reference: US12544375B2, “Small molecule therapeutic for parkinson's disease paired with a biomarker of therapeutic activity” (The Board of Trustees of the Leland Stanford Junior …, priority 2019, dated 2026)

System: LRRK2^G2019S, PINK1 null and SNCA^A53T flies
Experiment: Fly lifespan (survival curves)
Assay type: in vivo
Protocol: FIG. 4A-FIG. 4I. Miro1 Reducer Rescues PD-Relevant Phenotypes in Flies. For all panels, when Miro1 Reducer was not added, the same volume of the solvent, DMSO, was supplied in fly food. Drug administration (2.5 μM) was started from day 2. (FIG. 4A-FIG. 4C) Survival curves of LRRK2^G2019S (FIG. 4A), PINK1^B9 (imprecise excision, null) and PINK1^RV (the precise excision control for PINK1^B9) (FIG. 4B), and SNCA^A53T flies (FIG. 4C). n=58-150. (FIG. 4D) Dopaminergic (DA) neurons in the PPM1/2 clusters of 22-day old flies were immunostained with anti-TH. (FIG. 4D-FIG. 4F) Quantification of the DA neuron number in the PPL1 or PPM1/2 cluster (total number divided by 2 for each brain). (FIG. 4D) LRRK2^G2019S. n=6-8 brains. (FIG. 4E) PINK1^B9 (“−”) and PINK1^RV (“+”). n=9-16. (FIG. 4F) SNCA^A53T. n=9-11. (FIG. 4G-FIG. 4I) Climbing ability (Average PI±S.E.M) of adult flies. n=24-47 flies.
In order to cross-validate the neuroprotective effect of Miro1 Reducer in vivo, we fed the compound to three well-established fly PD models: (1) Actin-GAL4>UAS-LRRK2^G2019S (ubiquitous expression of human pathogenic LRRK2); (2) PINK1 null; and (3) Elav-GAL4>UAS-SNCA^A53T (neuronal expression of human pathogenic alpha-synuclein). […]
Fly Behavior and Biochemical Assays. […] Flies were transferred into fresh vials and the numbers of dead and escaped flies were scored 3 times a week. […]

O=C(Nc1ccc(Nc2cc(-n3ccnc3)ncn2)cc1)Nc1cccc(F)c1 [Miro1 Reducer]
long-term toxicity (lifespan) (2.5 μM in food from adulthood, wild-type or PD flies): no long-term toxicity
lifespan of SNCA^A53T flies (2.5 μM in food, Log-Rank P=0.00019 0 μM v.s. 2.5 μM): extended the shortened lifespan
